Test results published in ChEMBL document CHEMBL1201862, “PubChem BioAssay data set” (2004).
Active and inactive are the calls of the source.

What was measured:
[1] = Luminescence Cell-Based Dose Retest to Confirm Inhibitors of Cancer Stem Cells. [Related pubchem assays (depositor defined):AID2717, AID2721]; assay type: functional; settings: Homo sapiens
[2] = molecular target: T1, Ubiquitin-conjugating enzyme E2 N (Homo sapiens, UniProt P61088); assay type: functional;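 also: Dose-response confirmation in a TR-FRET assay detecting UBC13-driven polyubiquitin chain formation, inhibition measured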
T1 sequence (P61088 whole entry): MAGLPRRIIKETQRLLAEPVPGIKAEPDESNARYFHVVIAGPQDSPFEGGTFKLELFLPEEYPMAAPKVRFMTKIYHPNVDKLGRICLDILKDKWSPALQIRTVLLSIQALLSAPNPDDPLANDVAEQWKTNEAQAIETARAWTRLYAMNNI

[3] = molecular target: T2, Short transient receptor potential channel 4 (Mus musculus, UniProt Q9QUQ5); test: calcium entry via TRPC4 opening agents – cell-based, HEK293 TRPC4/mu-opioid, Fluo-4 calcium, dose response (AID 434937); assay type: functional
T2 sequence (Q9QUQ5 whole entry): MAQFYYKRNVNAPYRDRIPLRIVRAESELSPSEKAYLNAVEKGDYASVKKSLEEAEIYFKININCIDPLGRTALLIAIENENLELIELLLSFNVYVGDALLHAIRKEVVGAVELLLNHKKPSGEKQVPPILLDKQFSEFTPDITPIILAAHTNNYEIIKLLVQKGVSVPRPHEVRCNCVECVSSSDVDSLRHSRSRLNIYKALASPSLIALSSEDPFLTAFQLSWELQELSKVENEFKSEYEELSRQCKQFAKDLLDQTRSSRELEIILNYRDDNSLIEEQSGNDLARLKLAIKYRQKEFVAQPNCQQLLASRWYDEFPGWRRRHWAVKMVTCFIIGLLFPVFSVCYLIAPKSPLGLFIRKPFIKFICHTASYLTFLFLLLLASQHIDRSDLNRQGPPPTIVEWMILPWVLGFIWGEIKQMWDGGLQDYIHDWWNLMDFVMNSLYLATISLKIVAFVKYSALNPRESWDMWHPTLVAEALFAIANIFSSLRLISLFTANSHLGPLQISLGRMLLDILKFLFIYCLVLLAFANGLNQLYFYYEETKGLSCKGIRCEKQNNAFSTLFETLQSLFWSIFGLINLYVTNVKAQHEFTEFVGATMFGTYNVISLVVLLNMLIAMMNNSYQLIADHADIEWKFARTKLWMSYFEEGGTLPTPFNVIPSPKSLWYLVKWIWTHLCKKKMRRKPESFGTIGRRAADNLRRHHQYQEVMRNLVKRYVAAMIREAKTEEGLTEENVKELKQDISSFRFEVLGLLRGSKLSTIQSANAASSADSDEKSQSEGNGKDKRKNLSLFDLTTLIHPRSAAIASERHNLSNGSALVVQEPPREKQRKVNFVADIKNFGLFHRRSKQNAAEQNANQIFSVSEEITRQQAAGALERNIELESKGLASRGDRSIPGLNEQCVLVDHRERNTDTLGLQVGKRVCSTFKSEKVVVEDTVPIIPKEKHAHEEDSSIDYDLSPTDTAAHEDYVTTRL

[4] = HEK-293T viability loss after treatment – luminescence, T-cell screen hits, cytotoxicity control for TCR NF-kB inhibitor project, dose response (AID 489026); assay type: functional, cell-based;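 also: cells exposed to compound about 14 hours before the viability readout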
[5] = NIH-3T3 fibroblast cytotoxicity, dose response, cytotoxicity control, cell-based, fluorescence, Alamar Blue, secondary assay (AID 2327); assay type: functional;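 also: NIH-3T3 mouse fibroblasts cultured with fluconazole at 8 µg/mL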
[6] = fluconazole-exposed Candida albicans growth modulators – fluorescence, retest, confirmation (AID 2467); assay type: functional, cell-based
[7] = molecular target: T3, Microphthalmia-associated transcription factor (Homo sapiens, UniProt O75030); test: reducers of TRPM1 reporter luminescence, concentration series – cell-based, SK-MEL-5, cherry-picked, set 3, MITF inhibitor project, dose response (AID 493073); assay type: functional;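 also: SK-MEL-5 melanoma cells with luciferase driven by the MITF target TRPM1 promoter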
T3 sequence (O75030 whole entry): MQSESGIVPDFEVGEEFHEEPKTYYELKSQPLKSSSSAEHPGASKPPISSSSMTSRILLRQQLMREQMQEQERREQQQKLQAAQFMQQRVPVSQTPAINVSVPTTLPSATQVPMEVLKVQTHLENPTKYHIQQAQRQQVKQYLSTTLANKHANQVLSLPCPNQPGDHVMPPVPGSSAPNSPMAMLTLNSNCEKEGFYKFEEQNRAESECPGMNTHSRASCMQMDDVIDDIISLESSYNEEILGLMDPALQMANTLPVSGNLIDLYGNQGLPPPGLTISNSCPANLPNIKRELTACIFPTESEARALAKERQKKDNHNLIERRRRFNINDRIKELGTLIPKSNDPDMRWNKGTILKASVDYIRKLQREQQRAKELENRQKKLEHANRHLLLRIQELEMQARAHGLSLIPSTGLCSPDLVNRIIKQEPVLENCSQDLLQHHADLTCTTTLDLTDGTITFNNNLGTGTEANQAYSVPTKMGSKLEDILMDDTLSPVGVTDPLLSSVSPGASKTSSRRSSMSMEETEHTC

[8] = luciferase reporter signal suppression in cells – H4 neuroglioma cells, luminescence, dose response (AID 1990); assay type: functional, cell-based
[9] = Luminescence Cell-Based Dose Response HTS to Identify Inhibitors of 5'UTR Stem-Loop Driven Prion Protein mRNA Translation in H4 Neuroglioblastoma Cells. [Related pubchem assays: 1827 (Project Summary), 1813 (Primary HTS)]; assay type: functional
[10] = alpha-synuclein stem-loop luciferase translation blockers – H4 neuroglioma cells, luminescence, confirmation (AID 1988); assay type: functional, cell-based
[11] = molecular target: T4, Corticotropin-releasing factor receptor 2/Corticotropin-releasing factor-binding protein (Homo sapiens, UniProt P24387+Q13324); test: activators of CRF receptor 2 with binding protein – uHTS hits, confirmation (AID 602473); assay type: functional; settings: read-out: EC50_Mean
T4 sequence (Q13324 whole entry): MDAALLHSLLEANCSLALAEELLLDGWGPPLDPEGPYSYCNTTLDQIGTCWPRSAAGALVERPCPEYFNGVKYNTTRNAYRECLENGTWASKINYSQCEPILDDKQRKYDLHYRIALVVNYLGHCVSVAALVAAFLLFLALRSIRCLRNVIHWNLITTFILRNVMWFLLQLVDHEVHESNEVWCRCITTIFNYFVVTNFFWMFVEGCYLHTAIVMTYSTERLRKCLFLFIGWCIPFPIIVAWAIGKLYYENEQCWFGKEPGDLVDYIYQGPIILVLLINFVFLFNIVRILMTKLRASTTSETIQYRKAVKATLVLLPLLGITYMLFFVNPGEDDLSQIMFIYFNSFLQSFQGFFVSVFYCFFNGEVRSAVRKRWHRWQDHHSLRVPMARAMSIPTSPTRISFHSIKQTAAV
T4 sequence (P24387 whole entry): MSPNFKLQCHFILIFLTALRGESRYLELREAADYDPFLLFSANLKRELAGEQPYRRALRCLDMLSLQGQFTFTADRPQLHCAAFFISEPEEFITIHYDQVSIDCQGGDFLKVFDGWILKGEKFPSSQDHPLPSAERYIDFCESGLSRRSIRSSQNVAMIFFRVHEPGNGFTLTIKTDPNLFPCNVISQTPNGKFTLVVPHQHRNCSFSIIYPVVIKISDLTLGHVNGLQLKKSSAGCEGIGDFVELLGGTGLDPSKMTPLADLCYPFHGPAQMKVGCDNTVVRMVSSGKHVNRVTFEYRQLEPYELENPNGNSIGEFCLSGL

[12] = molecular target: T5, Protein skinhead-1 (Caenorhabditis elegans, UniProt P34707); assay type: functional
T5 sequence (P34707 whole entry): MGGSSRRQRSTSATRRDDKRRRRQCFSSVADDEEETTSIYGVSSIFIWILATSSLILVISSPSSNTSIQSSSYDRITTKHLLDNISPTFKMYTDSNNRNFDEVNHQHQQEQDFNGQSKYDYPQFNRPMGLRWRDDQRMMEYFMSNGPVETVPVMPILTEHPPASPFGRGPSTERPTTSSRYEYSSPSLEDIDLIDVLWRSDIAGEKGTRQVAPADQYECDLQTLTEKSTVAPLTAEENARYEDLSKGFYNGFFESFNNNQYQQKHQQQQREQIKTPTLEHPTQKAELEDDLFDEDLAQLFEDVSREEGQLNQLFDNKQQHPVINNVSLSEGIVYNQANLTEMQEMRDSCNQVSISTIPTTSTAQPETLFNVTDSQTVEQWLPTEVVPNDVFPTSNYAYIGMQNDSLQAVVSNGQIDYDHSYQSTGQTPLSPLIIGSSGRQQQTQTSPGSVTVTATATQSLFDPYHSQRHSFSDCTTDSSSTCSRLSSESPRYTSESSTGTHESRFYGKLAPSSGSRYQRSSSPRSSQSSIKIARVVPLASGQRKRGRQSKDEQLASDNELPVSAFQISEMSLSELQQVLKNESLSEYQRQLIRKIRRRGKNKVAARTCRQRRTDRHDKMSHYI

[13] = Trypanosoma cruzi growth suppression in host cells – NIH3T3 host cells, beta-gal luminescence, confirmation (AID 2044); assay type: functional, cell-based;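 also: intracellular parasites grown in NIH/3T3 mouse fibroblasts as host cells; luminescent beta-galactosidase reporter signal from transgenic T. cruzi replicating inside host cells; inhibitors lower the luminescence signal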
[14] = molecular target: T6, Zinc finger protein mex-5 (Caenorhabditis elegans, UniProt Q9XUB2); test: potency of MEX-5 RNA-binding blockers – biochemical, C. elegans, fluorescence polarization, dose response (AID 1960)
T6 sequence (Q9XUB2 whole entry): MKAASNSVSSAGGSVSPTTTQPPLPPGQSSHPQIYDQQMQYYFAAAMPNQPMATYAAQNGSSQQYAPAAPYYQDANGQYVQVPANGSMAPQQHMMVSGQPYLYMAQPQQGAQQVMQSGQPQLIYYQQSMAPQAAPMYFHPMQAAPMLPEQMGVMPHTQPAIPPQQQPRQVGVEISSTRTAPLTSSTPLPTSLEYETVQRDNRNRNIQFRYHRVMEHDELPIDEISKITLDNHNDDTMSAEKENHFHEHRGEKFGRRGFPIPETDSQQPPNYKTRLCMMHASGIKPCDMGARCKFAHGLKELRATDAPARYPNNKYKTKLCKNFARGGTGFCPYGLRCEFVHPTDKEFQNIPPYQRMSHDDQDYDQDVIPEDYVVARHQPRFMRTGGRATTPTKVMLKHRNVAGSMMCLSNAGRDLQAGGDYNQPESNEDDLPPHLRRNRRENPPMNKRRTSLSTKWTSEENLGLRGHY

[15] = NIH3T3 cell viability loss – ATP luminescence, mouse fibroblasts, counter-screen, dose response (AID 2010); assay type: functional, cell-based;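 also: cells exposed to compound for about 90 hours before reading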
[16] = molecular target: T7, RNA-binding protein pos-1 (Caenorhabditis elegans, UniProt G5EF15); test: disruptors of C. elegans POS-1 RNA interaction – biochemical, fluorescence polarization, dose response (AID 1964);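 also: purified POS-1 fused to maltose binding protein made in E. coli; potency of compounds blocking POS-1 binding to fluorescent RNA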
T7 sequence (G5EF15 whole entry): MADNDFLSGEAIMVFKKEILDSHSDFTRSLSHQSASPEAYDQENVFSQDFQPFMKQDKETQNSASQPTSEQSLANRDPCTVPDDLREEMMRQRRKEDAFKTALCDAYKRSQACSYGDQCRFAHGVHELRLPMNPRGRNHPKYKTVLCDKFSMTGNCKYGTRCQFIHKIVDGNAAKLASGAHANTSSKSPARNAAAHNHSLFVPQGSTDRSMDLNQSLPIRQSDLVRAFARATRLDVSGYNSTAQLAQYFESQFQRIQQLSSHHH

For COc1ccc(-c2sc3ccccc3c2C#Cc2cncn2C)cc1, the AC50 [1] was 2.69 µM (active) and the IC50 [2] was > 20 µM (inactive).
In the case of CN1CCN(Cc2nc3c(c(=O)[nH]c(=O)n3C)n2Cc2c(F)cccc2Cl)CC1, the EC50 [3] is reported as 1.68 µM (active).
For Cc1ccccc1Cn1c(CN2CCc3ccccc3C2)nc2c1c(=O)n(C)c(=O)n2C, the EC50 [3] was 5.96 µM (active).
In the case of COc1ccc([C@H]2CC(=O)C=C(c3c(OC)cccc3OC)C2)cc1, the IC50 [4] is reported as > 80 µM (inactive).
For O=c1c2ccccc2nc(-c2ccc(Cl)cc2Cl)n1O, the EC50 [5] was > 160 µM (inactive) and the EC50 [6] was 2.06 µM (active).
For Cc1ccc(NS(=O)(=O)c2ccc(CCC(=O)NCCO)cc2)cc1, the EC50 [5] was > 150 µM (inactive) and the EC50 [6] was > 38 µM (not active).
In the case of N=c1n(CC(=O)c2ccc([N+](=O)[O-])cc2)c2ccccc2n1Cc1ccccc1Cl, the AC50 [7] is reported as 4.03 µM (active).
For Cc1cc(C)c(CN2CCN(Cc3ccc(C)o3)C(CCO)C2)c(-n2cccn2)c1 (configuration not stated), the EC50 [3] was 3.35 µM (active).
With Cc1ccc(C)c(SCC(=O)Nc2nnc(-c3ccccc3)o2)c1 the EC50 [5] was > 150 µM (inactive) and the EC50 [6] was 2.1 µM (active).
In the case of COc1cccc(OC)c1C1=NCC(=O)Nc2c1oc1ccc(Br)cc21, the IC50 [4] is reported as 71.8 µM (inactive), the EC50 [8] is reported as 0.752 µM (active) and the EC50 [9] is reported as 0.566 µM (active). The EC50 [10] was 0.267 µM (active).
In the case of CCCCC(=O)NC(=S)NNC(=O)c1ccc(Cl)cc1Cl, the EC50 [3] is reported as 5.31 µM (active) and the EC50 [11] is reported as 6.56 µM (active).
In the case of NC(=O)C1CCCN(CC(O)COCc2ccc(Cl)cc2)C1 (configuration not stated), the EC50 [3] is reported as 0.211 µM (active).
With Cc1ccc(C2CC(C(F)(F)F)n3nc(C(=O)NCc4c(C)nn(C)c4C)c(Cl)c3N2)cc1 (configuration not stated) the IC50 [12] was > 100 µM (inactive) and the AC50 [7] was 8.89 µM (active).
With COc1cc(C(CCN2CCCC2)c2c(OC)cc(OC)c3c(-c4ccccc4)cc(=O)oc23)cc(OC)c1OC (configuration not stated) the EC50 [13] was 1.7 µM (active), the EC50 [14] was > 300 µM (not active) and the IC50 [2] was > 20 µM (inactive). The EC50 [15] was 49.2 µM (active) and the EC50 [16] was > 300 µM (not active).
With O=C(NCc1ccccc1)C1c2ccccc2Oc2ccccc21 the EC50 [5] was > 150 µM (inconclusive) and the EC50 [6] was 2.43 µM (active).
For CCOc1ccccc1C1CC(=O)Nc2cc3c(cc21)OCO3 (configuration not stated), the IC50 [4] was > 80 µM (inactive).
For CN(C)C(CNC(=O)c1ccc2ccccc2n1)c1ccccc1 (configuration not stated), the EC50 [3] was 0.267 µM (active).
In the case of O=C(COc1cc(Cl)c(Cl)cc1Cl)NCCc1ccccn1, the EC50 [3] is reported as 10.6 µM (active).
